Results reported in PMC6037046, “Structural insights into Plasmodium falciparum nicotinamide mononucleotide adenylyltransferase: oligomeric assembly” (Memórias do Instituto Oswaldo Cruz, 2018).

Key:
6 x His-PfNMNAT = target: T1, 6 x His-PfNMNAT (Plasmodium falciparum, UniProt Q8IE38); assay: RP-HPLC of NAD formed (direct assay); also ADH-coupled assay at […] nm; type: biochemical; details: 1.25 mM NMN, 1.25 mM ATP, 10 mM MgCl2, 25 mM HEPES/KOH pH 7.4, 37 C
T1 construct: gene PF3D7_1327600; full ORF in pET100/D-TOPO, N-terminal 6xHis tag kept, E. coli Codon Plus (DE3) RIL, ~28 kDa
T1 sequence (Q8IE38 1-204): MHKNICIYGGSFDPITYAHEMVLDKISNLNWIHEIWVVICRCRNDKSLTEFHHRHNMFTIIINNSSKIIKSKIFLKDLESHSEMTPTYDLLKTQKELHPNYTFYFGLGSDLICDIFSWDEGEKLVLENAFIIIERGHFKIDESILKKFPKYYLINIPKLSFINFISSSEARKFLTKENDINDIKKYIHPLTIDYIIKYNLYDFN

[1] = target: 6 x His-Plasmodium falciparum nicotinamide mononucleotide adenylyltransferase (PfNMNAT) recombinant protein (Plasmodium falciparum (FCB2 strain gDNA; ORF identified in strain 3D7)) (UniProt Q8IE38); assay: native gel or EMSA; native PAGE of IMAC eluate (four gels of 6, 8, 10, 12 %T) with Ferguson plot (-Log Kr vs Log MW) against standard proteins

| Compound | RP-HPLC of NAD formed (direct assay); also ADH-coupled assay at 340 nm (6 x His-PfNMNAT) | stoichiometry N [1] |
| --- | --- | --- |
| NC(=O)c1ccc[n+]([C@@H]2O[C@H](COP(=O)(O)O)[C@@H](O)[C@H]2O)c1 [NMN, nicotinamide mononucleotide] | direct enzymatic assays that measured NAD synthesis from NMN and ATP |  |
| Nc1ncnc2c1ncn2[C@@H]1O[C@H](COP(=O)(O)OP(=O)(O)OP(=O)(O)O)[C@@H](O)[C@H]1O [ATP] | direct enzymatic assays that measured NAD synthesis from NMN and ATP |  |
| 6 x His-Plasmodium falciparum nicotinamide mononucleotide adenylyltransferase (PfNMNAT) recombinant protein (from UniProt Q8IE38 1-204) (enzyme) |  | 2 |
